{"source": "PubChem BioAssay AID330", "about": "(DTP/NCI, 2004)", "system": "P388 leukemia ip, CD2F1 mice, survival T/C", "experiment": "NCI In Vivo Anticancer Drug Screen. Data for tumor model P388 Leukemia (intraperitoneal) in CD2F1 (CDF1) mice", "settings": "endpoint: median survival time, higher = longer survival", "procedure,_shortened": "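Mice carrying the transplanted tumor received test compound or vehicle. Survival was recorded in each group, and the value is the treated-group measurement divided by that of the vehicle-treated control group.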", "note": "Inconclusive results and toxic doses are left out."}
{"smiles": "CCCCCCCCCCCCCCCCC[CH2][Sn](=[O])[OH]", "values": [{"measurement": "T/C", "setting": "dose: 50.0 mg/kg/injection, schedule: Q01DX009 (ip), vehicle: saline", "value": "111 % of control"}, {"measurement": "T/C", "setting": "dose: 100.0 mg/kg/injection, schedule: Q01DX009 (ip), vehicle: saline", "value": "113 % of control"}, {"measurement": "T/C", "setting": "dose: 200.0 mg/kg/injection, schedule: Q01DX009 (ip), vehicle: saline", "value": "114 % of control"}]}
{"smiles": "CCN(CC)Cc1c(O)ccc2c3c(c(=O)oc12)CCCC3", "values": [{"measurement": "T/C", "setting": "dose: 8.0 mg/kg/injection, schedule: Q01DX009 (ip), vehicle: Klucel (hydroxypropylcellulose) (HPC)", "value": "101 % of control"}, {"measurement": "T/C", "setting": "dose: 16.0 mg/kg/injection, schedule: Q01DX009 (ip), vehicle: Klucel (hydroxypropylcellulose) (HPC)", "value": "102 % of control"}, {"measurement": "T/C", "setting": "dose: 32.0 mg/kg/injection, schedule: Q01DX009 (ip), vehicle: Klucel (hydroxypropylcellulose) (HPC)", "value": "101 % of control"}]}
{"smiles": "COC(=O)c1nc(N)nc(C(=O)OC)c1C(=O)c1ccco1", "values": [{"measurement": "T/C", "setting": "dose: 60.0 mg/kg/injection, schedule: Q01DX005 (ip), vehicle: Klucel (hydroxypropylcellulose) (HPC)", "value": "101 % of control"}, {"measurement": "T/C", "setting": "dose: 120.0 mg/kg/injection, schedule: Q01DX005 (ip), vehicle: Klucel (hydroxypropylcellulose) (HPC)", "value": "103 % of control"}]}
{"smiles": "COP(=S)(NC(C)C)Oc1ccc(C)cc1[N+](=O)[O-]", "note": "(centres undefined)", "values": [{"measurement": "T/C", "setting": "dose: 50.0 mg/kg/injection, schedule: Q01DX009 (ip), vehicle: saline with Tween-80", "value": "98 % of control"}, {"measurement": "T/C", "setting": "dose: 100.0 mg/kg/injection, schedule: Q01DX009 (ip), vehicle: saline with Tween-80", "value": "100 % of control"}, {"measurement": "T/C", "setting": "dose: 200.0 mg/kg/injection, schedule: Q01DX009 (ip), vehicle: saline with Tween-80", "value": "90 % of control"}]}
{"smiles": "CC1(C)N=C(N)N=C(N)N1c1cccc(C(=O)O)c1", "values": [{"measurement": "T/C", "setting": "dose: 25.0 mg/kg/injection, schedule: Q01DX005 (ip), vehicle: Klucel (hydroxypropylcellulose) (HPC)", "value": "117 % of control"}, {"measurement": "T/C", "setting": "dose: 50.0 mg/kg/injection, schedule: Q01DX005 (ip), vehicle: Klucel (hydroxypropylcellulose) (HPC)", "value": "100 % of control"}, {"measurement": "T/C", "setting": "dose: 100.0 mg/kg/injection, schedule: Q01DX005 (ip), vehicle: Klucel (hydroxypropylcellulose) (HPC)", "value": "107 % of control"}]}
